Laboratory results as given in ChEMBL document CHEMBL3885861, “Open TG-GATES”.

Organism: Rattus norvegicus
Test: Open TG-GATES - Regimen: Single
Type: toxicity, organism-based, Sprague-Dawley
Set-up: regimen Single, gender Male, age 6 weeks
Conditions: in vivo, po, 0 mg/kg, route gavage, dose level Control; for APTT / Bas / Eos / Fbg / Hb / Ht / Lym / MCH / MCHC / MCV / Mono / Neu / PT / Plat / RBC / Ret / WBC: tissue Blood; for KIDNEY_L / KIDNEY_R / KIDNEY_TOTAL: tissue Kidney; for LIVER: tissue Liver; for A/G / ALP / ALT / AST / BUN / CRE / Ca / Cl / DBIL / GLC / IP / K / LDH / Na / PL / RALB / TBIL / TC / TG / TP / gamma-GTP: tissue Plasma

CC[C@@H](CO)NCCN[C@@H](CC)CO [ETHAMBUTOL]
TERMINAL_BW (3 h): 227 g
APTT (3 h): 21.4 s
Bas (3 h): 0%
Eos (3 h): 0.8%
Fbg (3 h): 319 mg/dL
Hb (3 h): 13.3 g/dL
Ht (3 h): 39.5%
Lym (3 h): 83.8%
MCH (3 h): 22.3 pg
MCHC (3 h): 33.7%
MCV (3 h): 66.2 fL
Mono (3 h): 2%
Neu (3 h): 12.2%
PT (3 h): 15.9 s
Plat (3 h): 118.8 x10_4/uL
RBC (3 h): 597.6 x10_4/ul
Ret (3 h): 8.3%
WBC (3 h): 97.7 x10_2/uL
KIDNEY_L (3 h): 1 g
KIDNEY_R (3 h): 1 g
KIDNEY_TOTAL (3 h): 2.1 g
LIVER (3 h): 11.4 g
A/G (3 h): 1.2
ALP (3 h): 1599 IU/L
ALT (3 h): 42.2 IU/L
AST (3 h): 73.6 IU/L
BUN (3 h): 14.2 mg/dL
CRE (3 h): 0.2 mg/dL
Ca (3 h): 10.4 mg/dL
Cl (3 h): 106.6 meq/L
DBIL (3 h): 0 mg/dL
GLC (3 h): 192.4 mg/dL
IP (3 h): 8.7 mg/dL
K (3 h): 4.1 meq/L
LDH (3 h): 171.6 IU/L
Na (3 h): 144.2 meq/L
PL (3 h): 137.2 mg/dL
RALB (3 h): 3 g/dL
TBIL (3 h): 0.01 mg/dL
TC (3 h): 75.6 mg/dL
TG (3 h): 63.8 mg/dL
TP (3 h): 5.3 g/dL
gamma-GTP (3 h): 1.6 IU/L
TERMINAL_BW (6 h): 224 g
APTT (6 h): 22.2 s
Bas (6 h): 0%
Eos (6 h): 0.8%
Fbg (6 h): 301.2 mg/dL
Hb (6 h): 13.6 g/dL
Ht (6 h): 39.9%
Lym (6 h): 82.6%
MCH (6 h): 21.7 pg
MCHC (6 h): 34.1%
MCV (6 h): 63.8 fL
Mono (6 h): 2.4%
Neu (6 h): 13%
PT (6 h): 15.6 s
Plat (6 h): 122.5 x10_4/uL
RBC (6 h): 624.8 x10_4/ul
Ret (6 h): 7.5%
WBC (6 h): 117.8 x10_2/uL
KIDNEY_L (6 h): 1 g
KIDNEY_R (6 h): 1 g
KIDNEY_TOTAL (6 h): 2 g
LIVER (6 h): 10 g
A/G (6 h): 1.2
ALP (6 h): 1271 IU/L
ALT (6 h): 35 IU/L
AST (6 h): 66.2 IU/L
BUN (6 h): 11.2 mg/dL
CRE (6 h): 0.2 mg/dL
Ca (6 h): 10.3 mg/dL
Cl (6 h): 105.8 meq/L
DBIL (6 h): 0 mg/dL
GLC (6 h): 200.4 mg/dL
IP (6 h): 9.2 mg/dL
K (6 h): 4.4 meq/L
LDH (6 h): 176.2 IU/L
Na (6 h): 141.8 meq/L
PL (6 h): 134.8 mg/dL
RALB (6 h): 2.9 g/dL
TBIL (6 h): 0.02 mg/dL
TC (6 h): 72 mg/dL
TG (6 h): 82.8 mg/dL
TP (6 h): 5.4 g/dL
gamma-GTP (6 h): 1.6 IU/L
TERMINAL_BW (9 h): 220 g
APTT (9 h): 22.6 s
Bas (9 h): 0%
Eos (9 h): 0.6%
Fbg (9 h): 288 mg/dL
Hb (9 h): 13.4 g/dL
Ht (9 h): 39.5%
Lym (9 h): 82.6%
MCH (9 h): 21.3 pg
MCHC (9 h): 34%
MCV (9 h): 62.7 fL
Mono (9 h): 2.4%
Neu (9 h): 13.2%
PT (9 h): 16.5 s
Plat (9 h): 116 x10_4/uL
RBC (9 h): 632 x10_4/ul
Ret (9 h): 6.9%
WBC (9 h): 93.6 x10_2/uL
KIDNEY_L (9 h): 1 g
KIDNEY_R (9 h): 1 g
KIDNEY_TOTAL (9 h): 2 g
LIVER (9 h): 9.3 g
A/G (9 h): 1.2
ALP (9 h): 1394.2 IU/L
ALT (9 h): 37.4 IU/L
AST (9 h): 69.8 IU/L
BUN (9 h): 10.6 mg/dL
CRE (9 h): 0.2 mg/dL
Ca (9 h): 10.1 mg/dL
Cl (9 h): 107.8 meq/L
DBIL (9 h): 0.002 mg/dL
GLC (9 h): 180.2 mg/dL
IP (9 h): 9 mg/dL
K (9 h): 4.1 meq/L
LDH (9 h): 136.8 IU/L
Na (9 h): 142 meq/L
PL (9 h): 118.2 mg/dL
RALB (9 h): 3 g/dL
TBIL (9 h): 0.024 mg/dL
TC (9 h): 68.4 mg/dL
TG (9 h): 37.4 mg/dL
TP (9 h): 5.6 g/dL
gamma-GTP (9 h): 1.2 IU/L
TERMINAL_BW (24 h): 232.7 g
APTT (24 h): 22.2 s
Bas (24 h): 0%
Eos (24 h): 0.8%
Fbg (24 h): 311.8 mg/dL
Hb (24 h): 13.9 g/dL
Ht (24 h): 39.5%
Lym (24 h): 82.4%
MCH (24 h): 22.5 pg
MCHC (24 h): 35.1%
MCV (24 h): 64 fL
Mono (24 h): 2.4%
Neu (24 h): 13.4%
PT (24 h): 16.4 s
Plat (24 h): 115.4 x10_4/uL
RBC (24 h): 618.2 x10_4/ul
Ret (24 h): 6.9%
WBC (24 h): 99.5 x10_2/uL
KIDNEY_L (24 h): 1 g
KIDNEY_R (24 h): 1 g
KIDNEY_TOTAL (24 h): 2 g
LIVER (24 h): 10.8 g
A/G (24 h): 1.1
ALP (24 h): 1625.6 IU/L
ALT (24 h): 47.6 IU/L
AST (24 h): 73 IU/L
BUN (24 h): 17.2 mg/dL
CRE (24 h): 0.2 mg/dL
Ca (24 h): 10.6 mg/dL
Cl (24 h): 106.8 meq/L
DBIL (24 h): 0 mg/dL
GLC (24 h): 199 mg/dL
IP (24 h): 8.1 mg/dL
K (24 h): 4.1 meq/L
LDH (24 h): 176.8 IU/L
Na (24 h): 142.4 meq/L
PL (24 h): 147.2 mg/dL
RALB (24 h): 3 g/dL
TBIL (24 h): 0.006 mg/dL
TC (24 h): 73.4 mg/dL
TG (24 h): 94.6 mg/dL
TP (24 h): 5.7 g/dL
gamma-GTP (24 h): 1.8 IU/L
